Experimental data published in US9272034B2, “Treatment of conditions related to shock” (The Regents of the University of California, priority 2007, dated 2016).

Legend:
[1] = system: superior mesenteric artery occlusion (SMAO)-induced shock; experiment: Delayed intestinal lavage with protease inhibitor during reperfusion after SMAO; assay type: in vivo, Male Wistar rats
Text: In one series of experiments, the inventors discovered that delayed inhibition of digestive enzymes in the lumen of the intestine reduces inflammatory markers after shock. As a clinically relevant situation, the inventors examined the effectiveness of a delayed intestinal protease inhibition during reperfusion after SMAO. […] Intestinal ischemia-induced endotoxemia was prevented by digestive enzyme inhibition.
In summary, delayed intestinal protease inhibition serves to improve experimental SMAO-induced shock by reducing intestinal injury, the level of cell activation in plasma and in the microcirculation, and by restoring the blood pressure.

[2] = system: intestinal ischemia-induced shock; experiment: Intra-intestinal pancreatic protease inhibition in intestinal ischemia and reperfusion (SMAO); assay type: in vivo
Text: These experiments were designed to examine whether inflammatory mediators generated in the intestine by digestive enzymes are released early into the circulation and may contribute to the severe systemic inflammatory response syndrome during shock, a condition that involves the microcirculation in peripheral organs. Intestinal ischemia and reperfusion-induced hypotension upon reperfusion was accompanied by a significant increase in the level of neutrophil activating factors in the intestine and plasma. During reperfusion a significant increase in leukocyte-endothelium interactions in post-capillary venules and parenchymal cell death are observed in the cremaster muscle in controls after SMAO. […] In addition, ischemia-induced intestinal mucosal injury is attenuated with intestinal pancreatic protease inhibition.

[3] = system: septic shock with a lethal dose of endotoxin; experiment: Intra-luminal lavage after lethal dose of endotoxin (septic shock); assay type: in vivo, rat; details: endotoxin 4 mg/kg i.v.
Text: Sepsis is accompanied by severe inflammation whose mechanism remains uncertain. The inventors examined the possibility that pancreatic digestive enzymes may also be involved in inflammation in an experimental form of septic shock with a lethal dose of endotoxin in the rat. Immediately after intravenous endotoxin administration, the small intestine was subjected to intra-luminal lavage with and without an inhibitor of pancreatic digestive proteases (FOY, gabexate mesilate). After endotoxin administration (4 mg/kg, gram-negative), control rats developed hypotension, tachycardia, hyperventilation and leukopenia. The intestine and plasma contained mediators that activated leukocytes. The leukocyte-endothelial interaction within the cremaster muscle microcirculation was enhanced. […] These experiments indicate that inflammatory mediators derived from the intestine by digestive proteases may be involved in the prolonged inflammatory response and may sustain symptoms of sepsis after an endotoxin challenge. A bolus administration of endotoxin causes a transient inflammation response and elevated intestinal permeability. But the sustained inflammation that leads to multi-organ failure in this situation is caused by auto-digestion due to escape of pancreatic digestive enzymes from the lumen of the intestine due to the elevated mucosal permeability.

Cecal Lig. Shock = experiment: Long-term survival, cecal ligation shock with blockade in intestinal lumen and peritoneum; assay type: in vivo, rat; details: for survival rate (survivors/treated): alternative serine protease inhibitors
Protocol: (§1) A study of the long term survival after blockade of digestive enzymes provided further support to the findings. In preparation for this application the inventors carried out pilot studies in the rat with (a) hemorrhagic, (b) endotoxic and (c) cecal ligation shock, followed by an observation period for two weeks until normal cage activities were recorded in survivors. Without food restriction, in hemorrhagic shock the mean blood pressure was reduced for two hours to 35 mmHg followed by return of all blood volume but no further resuscitation. The digestive enzymes were blocked at 1 hour after hypotension by direct infusion of ANGD (0.37 mM, 15 ml) into the intestinal lumen after a temporary exposure via a midline incision. In endotoxic shock, the rats received gram-negative endotoxin (5 mg/kg, i.v.); the digestive enzymes were blocked in the same way at 1 hour after endotoxin administration. No other agent was administered. In cecal ligation shock both the digestive enzymes in the lumen of the intestine as well as inside the peritoneum were blocked with ANGD. […] In contrast to untreated controls, all treated survivors returned after anesthesia within hours to normal activity (walking, climbing, grooming, drinking, eating, bowel movements) and within 3 days to normal weight gain. Furthermore, treatment with alternative serine protease inhibitors (CYCLOKAPRON, tranexamic acid; TRASYLOL, aprotinin) in cecal ligation shock gave significant survival rates (5/5 rats, P<0.0079; 4/5 rats, P<0.02, respectively).

[4] = system: cytotoxic factors (free fatty acids) of intestinal homogenates; experiment: Cell death caused by rat small intestine homogenates; assay type: cell-based; details: homogenization of intestinal wall in the presence of the inhibitor
Text: Breakdown of free fatty acid binding proteins by proteases causes release of free fatty acids to act as powerful cytotoxic mediators.

septic shock = details: FDA approved treatment; more recent trials could not confirm the effectiveness; cited from earlier work
hemorrhagic shock [5] = experiment: Enteroclysis with digestive protease blockade in porcine hemorrhagic shock; assay type: in vivo, pigs
Protocol: The inventors examined the utility of intestinal lavage in a porcine model of hemorrhagic shock. An objective of this study was to determine the effect of digestive protease blockade in the lumen of the intestine during hemorrhagic shock. The animals (16 pigs) were subjected to a shock that mimics clinical events. Pigs were bled 30 ml/kg over 30 minutes and maintained at a mean arterial pressure of 30 mmHg for 60 minutes and shed blood was then used to maintain a pressure of 45 mmHg for three hours.

[6] = system: pancreatic digestive enzymes; experiment: Enzyme inhibitors administered directly into the circulation (i.v., i.a., i.m.) in shock; assay type: in vivo; details: administered directly into the circulation (i.v., i.a., i.m.) instead of the lumen of the intestine
Protocol: From a mechanistic point of view, an important feature is the fact that the significant protection rendered by the inhibition of pancreatic digestive enzymes is only provided if the enzymes are blocked inside the lumen of the intestine. […] This observation supports the hypothesis that digestive enzymes in the lumen of the intestine—where they are fully activated and in high concentrations—are the major enzymes in acute intestinal ischemia. They produce inflammatory mediators that are carried towards the central circulation via the portal venous system, but also via the intestinal lymphatics.

Hemorrhagic Shock [7] = experiment: Long-term survival, hemorrhagic shock with intra-intestinal enzyme blockade; assay type: in vivo, rat; details: ANGD 0.37 mM, 15 ml into intestinal lumen at 1 hour after hypotension; two weeks observation; P < 0.01
Protocol: as §1, with “Furthermore, treatment with alternative serine protease inhibitors (CYCLOKAPRON, tranexamic acid; TRASYLOL, aprotinin) in cecal ligation shock gave significant survival rates (5/5 rats, P<0.0079; 4/5 rats, P<0.02, respectively).” left out

Endotoxic Shock = experiment: Long-term survival, endotoxic shock with intra-intestinal enzyme blockade; assay type: in vivo, rat; details: endotoxin 5 mg/kg i.v.; blockade at 1 hour; two weeks observation; P < 0.004
Protocol: as §1, with “Furthermore, treatment with alternative serine protease inhibitors (CYCLOKAPRON, tranexamic acid; TRASYLOL, aprotinin) in cecal ligation shock gave significant survival rates (5/5 rats, P<0.0079; 4/5 rats, P<0.02, respectively).” left out

[8] = system: hemorrhagic, endotoxic and cecal ligation shock; experiment: Long-term survival pilot studies, observations stated for all three shock models together; assay type: in vivo, rat
Protocol: as §1

[9] = system: plasma enzymatic activity (cleavage of the extracellular domain of the insulin receptor); experiment: Shock plasma protease activity cleaving the insulin receptor extracellular domain on donor cells; assay type: cell-based; details: plasma of rats in hemorrhagic shock collected at 4 hours; results not shown
Protocol: It was further shown that plasma of shock rats has protease activity and causes cleavage of the extracellular domain of the insulin receptor, E-cadherin, and CAT-1. In all forms of shock there is consistently proteolytic activity in plasma. Therefore the inventors investigated the ability of central venous plasma of rats in hemorrhagic shock (collected at 4 hours) to cleave the extracellular domain of the insulin receptor a by using an antibody against the extracellular binding domain of insulin combined with membrane receptor density measurements. Exposure of normal donor cells to plasma from shock rats, but not to plasma of control rats, causes extensive cleavage of the insulin binding domain. Furthermore, this cleavage causes also a reduction of the glucose transport into the cell cytoplasm. […] There is also a significant cleavage of the extracellular domain of the tight junction protein E-cadherin in intestinal epithelium and CAT-1 in leukocytes.

hemorrhagic shock [10] = experiment: Survival of lab rodents in hemorrhagic shock given basic shock care with or without inhibitor; assay type: in vivo; details: 10 of 19 rodents treated; one of nine untreated survived
Text: The researchers then began animal studies. The present invention is based on the latest research using rodent models of human hemorrhagic shock. Here it has been discovered that the sudden lowering of blood pressure that occurs in people suffering from […] can provoke the body's digestive enzymes to break down the body's own intestinal tissue as if it were food. Such enzymes' abnormal actions may be defined as “auto-digestion.” Auto-digestion is dangerous because not only does it injure healthy tissue but also contributes to multi-organ failure, which can be fatal.
The healthy cells of the animals' intestinal tissue react to auto-digestion by releasing a slew of substances that can be toxic to the heart and other body organs. These substances, termed cytotoxic mediators, can reach these body organs via the blood stream. In their latest studies, shock was induced in 19 lab rodents, all of which were then treated with therapies that mirror the emergency room care given to many human patients who suffer shock, which typically occurs when blood flow to the heart, lungs and other body organs is slowed as a result of trauma, dehydration, heart attack or stroke.
A total of 10 of the 19 lab rodents in shock were also treated with the experimental digestive enzyme inhibitor called ANGD. […] However, only one of the nine “untreated” animals in shock survived. […]

[11] = FOY 0.37 mM, delayed lavage at 40 min after reperfusion
[12] = 100 ml/kg of 0.37 mM in GOLYTELY via duodenal catheter
[13] = blockade in lumen of intestine and peritoneum, two weeks observation, P < 0.001

CCOC(=O)c1ccc(OC(=O)CCCCCN=C(N)N)cc1.CS(=O)(=O)O [FOY, gabexate mesilate]
formation of intestine-derived leukocyte activation factors [1, 11]: decreased formation | intestinal injury [1, 11]: decreased | blood pressure ([1]; FOY 0.37 mM, delayed lavage at 40 min after reperfusion, SMAO 100 min): highly significant restoration of the initial blood pressure before shock | leukocytes adhesion in post-capillary venules ([1]; cremaster muscle microcirculation): lower leukocytes adhesion | cell death in the cremaster muscle microcirculation ([1]; rat, in vivo): reduced cell death | intestinal ischemia-induced endotoxemia ([1]; rat, in vivo): prevented | leukocyte-endothelial interactions (rolling and firm adhesion to the endothelium) ([2]; cremaster muscle): almost completely abolished | cell death (propidium iodine labeling) in the cremaster muscle ([2]; in vivo): almost completely abolished | ischemia-induced intestinal mucosal injury ([2]; in vivo): attenuated | blood pressure ([2]; intra-intestinal, 0.37 mM): stable blood pressure throughout the experiment | cell activation ([2]; intra-intestinal, 0.37 mM): almost completely abolished | cell injury in peripheral skeletal muscle microcirculation [3]: reduces | indices of inflammation in plasma [3]: reduces all indices | hemodynamic parameters ([3]; intra-luminal lavage immediately after): significantly improved

NC[C@H]1CC[C@H](C(=O)O)CC1 [CYCLOKAPRON, tranexamic acid]
survival rate (survivors/treated) (Cecal Lig. Shock): 5/5

CCCCCCCCCCC[C@@H](C[C@@H]1OC(=O)[C@H]1CCCCCC)OC(=O)[C@H](CC(C)C)NC=O [orlistat]
cell death after protease digestion [4]: prevented cell death

drotrecogin alfa (activated) [XIGRIS]
survival benefit (septic shock): minor but confirmed survival benefit

N=C(N)c1ccc2cc(OC(=O)c3ccc(N=C(N)N)cc3)ccc2c1 [ANGD, 6-amidino-2-naphthyl p-guanidobenzoate dimethane-sulfate]
protease activity in the intestinal lumen and in plasma throughout the experiment (hemorrhagic shock [5]; [12]): persistent suppression | protein and protease levels in the duodenum during enteroclysis (hemorrhagic shock [5]; [12]): significant reductions | leukocyte infiltration into the lung (hemorrhagic shock [5]; p=0.04): lower in treated than control animals | liver and small intestine injury (hemorrhagic shock [5]; pig, in vivo): less injury | transfusion requirement of shed blood (hemorrhagic shock [5]; versus 30±0.43 ml/kg in controls, p=0.002): 18.1 ± 4.5 mL/kg | level of neutrophil activation after resuscitation (hemorrhagic shock [5]; versus 46.9±4.5% in controls, p=0.0002): 31.1±3.3% | protection against inflammation in shock [6]: less, and in some cases no protection | Non-Survivor (Hemorrhagic Shock [7]): 2 number of rats | Survivor (Hemorrhagic Shock [7]): 10 number of rats | Non-Survivor (Endotoxic Shock): 1 number of rats | Survivor (Endotoxic Shock): 10 number of rats | Non-Survivor (Cecal Lig. Shock; [13]): 1 number of rats | Survivor (Cecal Lig. Shock; [13]): 9 number of rats | survival rate versus untreated controls ([8]; in each shock model): significantly enhanced survival rate | return of treated survivors to normal weight gain ([8]; rat, in vivo): ≤ 3 days | return of treated survivors to normal activity after anesthesia ([8]; walking, climbing, grooming, drinking, eating, bowel movements): within hours | block of plasma enzymatic activity [9]: more than 50% | survival (survivors of treated animals) (hemorrhagic shock [10]): Eight of the ten

aprotinin [TRASYLOL]
protection against inflammation in shock [6]: less, and in some cases no protection | survival rate (survivors/treated) (Cecal Lig. Shock): 4/5
